Laboratory results from ChEMBL document CHEMBL5252647 (Bioorg Med Chem, 2023).

Columns and labels:
MDA-MB-231 [1] = assay: Antiproliferative activity against human MDA-MB-231 cells assessed as inhibition of cell growth incubated for 72 hrs by MTT assay; format: functional, cell-based; settings: MDA-MB-231, 72 h
A549 = assay: Antiproliferative activity against human A549 cells assessed as inhibition of cell growth incubated for 72 hrs by MTT assay; format: functional, cell-based; settings: A549, 72 h
MCF7 [2] = assay: Antiproliferative activity against human MCF7 cells assessed as inhibition of cell growth incubated for 72 hrs by MTT assay; format: functional, cell-based; settings: MCF7, 72 h
HepG2 = assay: Antiproliferative activity against human HepG2 cells assessed as inhibition of cell growth incubated for 72 hrs by MTT assay; format: functional, cell-based; settings: HepG2, 72 h
[3] = target: Cyclin-dependent kinase 4 (Homo sapiens, UniProt P11802); assay: Covalent inhibition of CDK4 (unknown origin) using histone H1 as substrate incubated for 10 mins in presence of [gamma-32P]ATP by radioactivity based kinase assay
Chain of Cyclin-dependent kinase 4 (P11802 whole entry): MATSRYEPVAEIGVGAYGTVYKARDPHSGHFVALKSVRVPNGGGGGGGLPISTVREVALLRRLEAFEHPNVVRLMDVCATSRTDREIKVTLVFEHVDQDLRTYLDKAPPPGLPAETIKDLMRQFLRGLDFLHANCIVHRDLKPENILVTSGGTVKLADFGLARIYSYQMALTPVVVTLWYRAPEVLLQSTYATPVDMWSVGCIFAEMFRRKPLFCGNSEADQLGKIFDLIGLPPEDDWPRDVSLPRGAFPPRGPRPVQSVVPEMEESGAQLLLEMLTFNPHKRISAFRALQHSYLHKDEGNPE

[4] = target: Cyclin-dependent kinase 6 (Homo sapiens, UniProt Q00534); assay: Covalent inhibition of CDK6 (unknown origin) using histone H1 as substrate incubated for 10 mins in presence of [gamma-32P]ATP by radioactivity based kinase assay
Chain of Cyclin-dependent kinase 6 (Q00534 whole entry): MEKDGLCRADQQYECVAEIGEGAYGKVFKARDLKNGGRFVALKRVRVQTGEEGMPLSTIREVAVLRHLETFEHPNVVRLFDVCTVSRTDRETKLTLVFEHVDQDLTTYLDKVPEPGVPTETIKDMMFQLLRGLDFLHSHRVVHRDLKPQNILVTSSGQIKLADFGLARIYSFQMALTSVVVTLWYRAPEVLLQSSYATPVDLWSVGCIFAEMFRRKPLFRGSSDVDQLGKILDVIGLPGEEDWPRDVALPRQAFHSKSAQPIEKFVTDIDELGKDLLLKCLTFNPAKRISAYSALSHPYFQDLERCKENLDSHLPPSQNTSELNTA

[5] = target: Cyclin-dependent kinase 9 (Homo sapiens, UniProt P50750); assay: Covalent inhibition of CDK9 (unknown origin) using histone H1 as substrate incubated for 10 mins in presence of [gamma-32P]ATP by radioactivity based kinase assay
Chain of Cyclin-dependent kinase 9 (P50750 whole entry): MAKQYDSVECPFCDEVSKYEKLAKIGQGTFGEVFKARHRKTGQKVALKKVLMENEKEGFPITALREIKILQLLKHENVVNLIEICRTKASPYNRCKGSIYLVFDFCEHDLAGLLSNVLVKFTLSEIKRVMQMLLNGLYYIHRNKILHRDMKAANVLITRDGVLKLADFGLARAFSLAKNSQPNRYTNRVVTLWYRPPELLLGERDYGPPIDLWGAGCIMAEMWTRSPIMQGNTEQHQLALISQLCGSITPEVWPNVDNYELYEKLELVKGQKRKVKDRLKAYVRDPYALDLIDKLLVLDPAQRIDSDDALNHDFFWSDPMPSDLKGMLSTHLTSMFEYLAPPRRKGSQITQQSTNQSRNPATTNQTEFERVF

[6] = target: Cyclin-dependent kinase 12 (Homo sapiens, UniProt Q9NYV4); assay: Covalent inhibition of CDK12 (unknown origin) using histone H1 as substrate incubated for 10 mins in presence of [gamma-32P]ATP by radioactivity based kinase assay
Chain of Cyclin-dependent kinase 12 (Q9NYV4 whole entry): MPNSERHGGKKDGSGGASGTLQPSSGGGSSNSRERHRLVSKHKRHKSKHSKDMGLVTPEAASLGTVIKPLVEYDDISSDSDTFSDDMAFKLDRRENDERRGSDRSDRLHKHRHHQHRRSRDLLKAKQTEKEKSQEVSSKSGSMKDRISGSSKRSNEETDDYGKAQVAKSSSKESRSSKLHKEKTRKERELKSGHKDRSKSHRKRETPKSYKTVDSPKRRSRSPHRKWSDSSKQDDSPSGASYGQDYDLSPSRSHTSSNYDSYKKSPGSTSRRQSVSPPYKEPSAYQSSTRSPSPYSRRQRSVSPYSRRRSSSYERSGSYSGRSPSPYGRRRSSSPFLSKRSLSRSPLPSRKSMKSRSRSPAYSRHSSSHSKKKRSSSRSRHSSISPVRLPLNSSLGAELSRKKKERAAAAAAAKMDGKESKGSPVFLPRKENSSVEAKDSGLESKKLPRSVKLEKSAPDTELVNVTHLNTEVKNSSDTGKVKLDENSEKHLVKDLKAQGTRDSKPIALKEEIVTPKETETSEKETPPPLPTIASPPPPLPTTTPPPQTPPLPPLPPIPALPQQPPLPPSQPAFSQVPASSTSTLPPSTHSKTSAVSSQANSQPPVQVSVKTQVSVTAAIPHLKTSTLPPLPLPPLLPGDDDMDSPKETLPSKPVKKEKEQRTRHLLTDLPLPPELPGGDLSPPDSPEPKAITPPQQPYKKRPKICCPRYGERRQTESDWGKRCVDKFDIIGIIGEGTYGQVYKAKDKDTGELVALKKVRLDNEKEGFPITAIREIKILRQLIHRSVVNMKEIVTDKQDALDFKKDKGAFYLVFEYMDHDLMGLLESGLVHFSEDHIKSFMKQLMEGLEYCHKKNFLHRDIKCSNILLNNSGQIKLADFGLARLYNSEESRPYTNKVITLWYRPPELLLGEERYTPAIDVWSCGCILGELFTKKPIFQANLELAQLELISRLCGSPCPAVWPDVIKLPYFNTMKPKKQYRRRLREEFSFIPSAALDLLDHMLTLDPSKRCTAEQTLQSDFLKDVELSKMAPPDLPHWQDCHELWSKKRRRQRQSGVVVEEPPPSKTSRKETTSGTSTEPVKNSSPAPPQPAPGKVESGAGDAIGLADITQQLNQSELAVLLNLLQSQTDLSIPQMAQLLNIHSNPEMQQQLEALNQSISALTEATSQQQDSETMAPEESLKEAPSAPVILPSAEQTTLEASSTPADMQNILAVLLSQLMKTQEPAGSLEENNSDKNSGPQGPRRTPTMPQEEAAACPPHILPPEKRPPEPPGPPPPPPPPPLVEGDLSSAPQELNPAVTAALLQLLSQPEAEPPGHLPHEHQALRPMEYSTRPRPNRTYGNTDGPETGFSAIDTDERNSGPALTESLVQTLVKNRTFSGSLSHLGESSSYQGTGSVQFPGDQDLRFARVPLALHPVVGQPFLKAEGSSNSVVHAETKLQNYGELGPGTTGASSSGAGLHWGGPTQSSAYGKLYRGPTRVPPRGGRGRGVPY

MDA-MB-231 [7] = assay: Induction of apoptosis in human MDA-MB-231 cells assessed as viable cells at 10 uM incubated for 24 hrs by annexin V-FITC/propidium iodide staining based flow cytometry analysis (reference value: 96.5%); format: functional; settings: read-out: Activity
MDA-MB-231 [8] = assay: Induction of apoptosis in human MDA-MB-231 cells assessed as early apoptotic cells at 10 uM incubated for 24 hrs by annexin V-FITC/propidium iodide staining based flow cytometry analysis (reference value: 3.39%); format: functional
MDA-MB-231 [9] = assay: Induction of apoptosis in human MDA-MB-231 cells assessed as late apoptotic cells at 10 uM incubated for 24 hrs by annexin V-FITC/propidium iodide staining based flow cytometry analysis (reference value: 0.113%); format: functional
MDA-MB-231 [10] = assay: Induction of apoptosis in human MDA-MB-231 cells assessed as necrotic cells at 10 uM incubated for 24 hrs by annexin V-FITC/propidium iodide staining based flow cytometry analysis (reference value: 0.034%); format: functional
MDA-MB-231 [11] = assay: Cell cycle arrest in human MDA-MB-231 cells assessed as accumulation of cells at G0/G1 phase at 10 uM incubated for 24 hrs by propidium iodide staining based assay (reference value: 54.43%); format: functional
MDA-MB-231 [12] = assay: Cell cycle arrest in human MDA-MB-231 cells assessed as accumulation of cells at G2/M phase at 10 uM incubated for 24 hrs by propidium iodide staining based assay (reference value: 20.49%); format: functional
MDA-MB-231 [13] = assay: Cell cycle arrest in human MDA-MB-231 cells assessed as accumulation of cells at S phase at 10 uM incubated for 24 hrs by propidium iodide staining based assay (reference value: 25.09%); format: functional
MDA-MB-231 [14] = assay: Induction of apoptosis in human MDA-MB-231 cells assessed as apoptosis rate at 10 uM incubated for 24 hrs by annexin V-FITC/propidium iodide staining based flow cytometry analysis; format: functional
MCF7 [15] = assay: Antiproliferative activity against palbociclib-resistant human MCF7 cells assessed as inhibition of cell growth incubated for 72 hrs by MTT assay; format: functional, cell-based; settings: MCF7, 72 h
[16] = target: T1, Cyclin-dependent kinase 4/6 (Homo sapiens) (UniProt P11802+Q00534); assay: Inhibition of CDK4/CDK6 signaling pathway in human MDA-MB-231 cells assessed as reduction of RB phosphorylation at Ser780 residue level at 1 to 8 uM incubated for 24 hrs by western blot assay; format: cell-based; settings: dose 1-8 µM
T1 sequence (P11802 whole entry, looked up): as the sequence (P11802 whole entry) above
T1 sequence (Q00534 whole entry, looked up): as the sequence (Q00534 whole entry) above

[17] = target: T1, Cyclin-dependent kinase 4/6 (Homo sapiens); assay: Inhibition of CDK4/CDK6 signaling pathway in human MDA-MB-231 cells assessed as inhibition of CDK6 expression level at 1 to 8 uM incubated for 24 hrs by western blot assay; format: cell-based; settings: dose 1-8 µM
[18] = target: T1, Cyclin-dependent kinase 4/6 (Homo sapiens); assay: Inhibition of CDK4/CDK6 signaling pathway in human MDA-MB-231 cells assessed as inhibition of CDK4 expression level at 1 to 8 uM incubated for 24 hrs by western blot assay; format: cell-based; settings: dose 1-8 µM
[19] = Resistance factor, ratio of IC50 for palbociclib-resistant human MCF7 cells to IC50 for human MCF7 cells; format: functional

IC50 (MDA-MB-231 [1]) [µM] | IC50 (A549) [µM] | IC50 (MCF7 [2]) [µM] | IC50 (HepG2) [µM] | Structure (SMILES) | other results
> 20 | 13 | > 20 | 13.7 | COc1ccc(/C=C/C(=O)NCCCC(=O)N2CCN(c3ccc(Nc4ncc5c(C)c(C(C)=O)c(=O)n(C6CCCC6)c5n4)nc3)CC2)cc1OC | –
> 20 | 16.5 | > 20 | > 20 | COC(=O)/C=C/CN1CCN(c2ccc(Nc3ncc4c(C)c(C(C)=O)c(=O)n(C5CCCC5)c4n3)nc2)CC1 | –
7.2 | 11.8 | > 20 | 10.1 | COc1ccc(/C=C/C(=O)NCCC(=O)N2CCN(c3ccc(Nc4ncc5c(C)c(C(C)=O)c(=O)n(C6CCCC6)c5n4)nc3)CC2)cc1OC | –
7.75 | 17.6 | 1.32 | > 20 | CC(=O)c1c(C)c2cnc(Nc3ccc(N4CCN(C(=O)/C=C/C5CC5)CC4)cn3)nc2n(C2CCCC2)c1=O | –
6.29 | 12.1 | > 20 | 10.6 | COc1cc(/C=C/C(=O)NCC(=O)N2CCN(c3ccc(Nc4ncc5c(C)c(C(C)=O)c(=O)n(C6CCCC6)c5n4)nc3)CC2)ccc1O | –
8.88 | > 20 | > 20 | > 20 | COc1cc(/C=C/C(=O)N2CCN(c3ccc(Nc4ncc5c(C)c(C(C)=O)c(=O)n(C6CCCC6)c5n4)nc3)CC2)ccc1O | –
5.68 | 9.57 | 0.42 | 9.11 | CC(=O)c1c(C)c2cnc(Nc3ccc(N4CCN(C(=O)/C(C#N)=C/c5ccccc5)CC4)cn3)nc2n(C2CCCC2)c1=O | IC50 [3]: 0.025 µM; IC50 [4]: 0.019 µM; IC50 [5]: > 1 µM; IC50 [6]: > 1 µM; viability at 10 µM (MDA-MB-231 [7]): 36.5%; Activity (MDA-MB-231 [8]): 52.1%; Activity (MDA-MB-231 [9]): 11%; Activity (MDA-MB-231 [10]): 0.425%; Activity (MDA-MB-231 [11]): 63.83%; Activity (MDA-MB-231 [12]): 11.59%; Activity (MDA-MB-231 [13]): 24.58%; Activity (MDA-MB-231 [14]): 63.1%
8.21 | > 20 | 2.69 | > 20 | COc1ccc(/C=C/C(=O)NCCCC(=O)N2CCN(c3ccc(Nc4ncc5c(C)c(C(C)=O)c(=O)n(C6CCCC6)c5n4)nc3)CC2)cc1O | –
> 20 | 16.1 | 1.85 | > 20 | COc1ccc(/C=C/C(=O)N2CCN(c3ccc(Nc4ncc5c(C)c(C(C)=O)c(=O)n(C6CCCC6)c5n4)nc3)CC2)cc1OC | –
5.62 | 8.07 | 0.78 | 9.92 | CC(=O)c1c(C)c2cnc(Nc3ccc(N4CCNCC4)cn3)nc2n(C2CCCC2)c1=O [PALBOCICLIB] | IC50 (MCF7 [15]): 5.81 µM; viability at 10 µM (MDA-MB-231 [7]): 24.8%; Activity (MDA-MB-231 [8]): 47.6%; Activity (MDA-MB-231 [9]): 26.1%; Activity (MDA-MB-231 [10]): 1.47%; Activity (MDA-MB-231 [11]): 71.23%; Activity (MDA-MB-231 [12]): 11.78%; Activity (MDA-MB-231 [13]): 16.99%; Activity (MDA-MB-231 [14]): 73.7%
8.57 | 17.3 | 2.36 | > 20 | C/C=C/C(=O)N1CCN(c2ccc(Nc3ncc4c(C)c(C(C)=O)c(=O)n(C5CCCC5)c4n3)nc2)CC1 | –
0.51 | 1.55 | 0.48 | 5.1 | CC(=O)c1c(C)c2cnc(Nc3ccc(N4CCN(C(=O)/C=C/C(F)(F)F)CC4)cn3)nc2n(C2CCCC2)c1=O | inhibition [16]: Dose-Dependent Effect; inhibition [17]: Dose-Dependent Effect; inhibition [18]: Dose-Dependent Effect; IC50 (MCF7 [15]): 0.53 µM; Ratio IC50 [19]: 1.1; IC50 [3]: 0.018 µM; IC50 [4]: 0.013 µM; IC50 [5]: > 1 µM; IC50 [6]: > 1 µM; viability at 10 µM (MDA-MB-231 [7]): 20.6%; Activity (MDA-MB-231 [8]): 62.3%; Activity (MDA-MB-231 [9]): 16.7%; Activity (MDA-MB-231 [10]): 0.445%; Activity (MDA-MB-231 [11]): 68.69%; Activity (MDA-MB-231 [12]): 10.14%; Activity (MDA-MB-231 [13]): 21.16%; Activity (MDA-MB-231 [14]): 79%
8.96 | 14.4 | 2.33 | 11.7 | COc1ccc(/C=C/C(=O)NCC(=O)N2CCN(c3ccc(Nc4ncc5c(C)c(C(C)=O)c(=O)n(C6CCCC6)c5n4)nc3)CC2)cc1OC | –
5.26 | 9.75 | 0.62 | 9.55 | C=CC(=O)N1CCN(c2ccc(Nc3ncc4c(C)c(C(C)=O)c(=O)n(C5CCCC5)c4n3)nc2)CC1 | IC50 [3]: 0.023 µM; IC50 [4]: 0.015 µM; IC50 [5]: > 1 µM; IC50 [6]: 0.89 µM; viability at 10 µM (MDA-MB-231 [7]): 43.8%; Activity (MDA-MB-231 [8]): 40.3%; Activity (MDA-MB-231 [9]): 15.2%; Activity (MDA-MB-231 [10]): 0.689%; Activity (MDA-MB-231 [11]): 60.21%; Activity (MDA-MB-231 [12]): 13.78%; Activity (MDA-MB-231 [13]): 26.01%; Activity (MDA-MB-231 [14]): 55.5%
6.73 | 14.4 | > 20 | 11.9 | CC(=O)c1c(C)c2cnc(Nc3ccc(N4CCN(C(=O)/C=C/c5ccccc5)CC4)cn3)nc2n(C2CCCC2)c1=O | –
